According to the METLIN SMRT retention time set (Domingo-Almenara et al. 2019):

Experiment: gradient 5% acetonitrile 3 min, to 50% in 2 min, to 85% in 15 min, held 3 min, 100 µL/min
Conditions: column: Zorbax Extend-C18 2.1 x 50 mm; eluents: water / acetonitrile, 0.1% formic acid
How it was run: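 In both positive and negative ionization mode, a quadrupole time-of-flight mass spectrometer coupled to HPLC analyzed pure standards run in mixtures of ~100 molecules. The Zorbax Extend-C18 column (2.1 × 50 mm, 1.8 μm) was operated at 100 μL/min with water and acetonitrile, each containing 0.1% formic acid. The dead volume was 40 μL and the dwell volume 900 μL. Retention time came from adduct peaks that were computationally picked and individually inspected by hand.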

For `O=C(NCc1noc(C2CCCC2)n1)c1coc(C2CC2)n1`, the RP-LC retention time was 821 s.
Compound `CCOC(=O)CCCn1nc(C)c2nn(-c3ccccc3)c(-n3cccc3)c2c1=O` has an RP-LC retention time of 1060 s.
Work on `CC1Cc2cc(S(=O)(=O)N3CCC(C(N)=O)(N4CCCCC4)CC3)ccc2N1C(=O)C1CC1` (stereo not given) yielded an RP-LC retention time of 630 s.
Work on `Cc1ccc(NC(=O)C2CCCN(S(=O)(=O)c3c[nH]c(C(=O)N4CCCC4)c3)C2)cc1` (stereo not given) yielded an RP-LC retention time of 850 s.
Compound `CC(CCc1ccccc1)NC(=O)CN1CCCN(Cc2ccccc2Cl)S1(=O)=O` (stereo not given) has an RP-LC retention time of 1070 s.
Work on `CCCCOc1ccc(NC(=O)Nc2ccc3c(c2)CN(C(=O)CC)CC3)cc1` yielded an RP-LC retention time of 861 s.
With `Cc1ccc(CNC(=O)c2cn3c(n2)CCCC3)cc1` the RP-LC retention time was 604 s.
`Cc1ccc(NC(=O)N2CCC(n3cnc4cc(Cl)ccc4c3=O)CC2)cc1F` gave an RP-LC retention time of 904 s.
For `CCCC(=O)Nc1ccc2c(c1)CCC(=O)N2CCOC`, the RP-LC retention time was 654 s.
Compound `CCCC(=O)Nc1cc2c(cc1SC(C)C)n(C)c(=O)n2C` has an RP-LC retention time of 852 s.
`Cc1cnn(CCC(=O)N2CCCn3ccnc3C2C2CCCC2)c1` (stereo not given) gave an RP-LC retention time of 611 s.
`CCCCn1c(=O)c2ccccc2n(Cc2nc(-c3ccccc3OCC)no2)c1=O` showed an RP-LC retention time of 1130 s.
For `O=c1c2nc(-c3ccc(F)cc3)cn2ccn1-c1cccc(Cl)c1`, the RP-LC retention time was 867 s.
`CN1CCc2nnc(C3CCCN3C(=O)Nc3ccc(Cl)cc3F)n2CC1` (stereo not given) showed an RP-LC retention time of 581 s.
In the case of `CC1=C(c2ccc(F)cc2)S(=O)(=O)N=C1N1CCC(NC(=O)C2CCCO2)CC1` (stereo not given), the RP-LC retention time is reported as 716 s.
`Cc1ccc(Nc2c(-c3ccc(N(C)C)cc3)nc3cc(C)ccn23)cc1` gave an RP-LC retention time of 828 s.
Work on `O=C(Cn1c(=O)c2cccn2c2ccc(F)cc21)NC1CCCCC1` yielded an RP-LC retention time of 850 s.
`CCC(=O)N1CCc2c(C(=O)N3CCN(c4ccc(OC)cc4)CC3)cccc21` showed an RP-LC retention time of 778 s.
In the case of `Cc1nc(C)c(C(=O)Nc2cccc(Cl)c2C)o1`, the RP-LC retention time is reported as 731 s.
`COCCC1CCN(C(=O)CN(C)C(=O)c2ccsc2)CC1` showed an RP-LC retention time of 655 s.
`CCCNC(=O)c1ccc2c(c1)CCCN2S(C)(=O)=O` gave an RP-LC retention time of 713 s.
With `CCOc1ccc(-c2noc(Cn3c(=O)n(C(C)CC)c(=O)c4ccccc43)n2)cc1OC` (stereo not given) the RP-LC retention time was 1140 s.
With `CC1=C(c2ccc(F)cc2)S(=O)(=O)N=C1N1CCCN(C(=O)c2ccccc2)CC1` the RP-LC retention time was 802 s.
`COC(=O)/C(=C1/OC(=O)C(c2ccccc2)=C1O)c1ccccc1` showed an RP-LC retention time of 1130 s.
For `COC(=O)c1cccc(C(=O)Nc2ccc(Br)cc2F)n1`, the RP-LC retention time was 1000 s.
For `CCC1Oc2ccc(S(=O)(=O)N3CCC(C(=O)Nc4ccccc4F)CC3)cc2NC1=O` (stereo not given), the RP-LC retention time was 812 s.
For `COC(=O)c1sc2ccccc2c1NC(=O)c1ccc([N+](=O)[O-])o1`, the RP-LC retention time was 871 s.
Work on `CN1C(=O)CCSc2ccccc21` yielded an RP-LC retention time of 711 s.
Work on `COC(=O)c1sccc1S(=O)(=O)NCC1CCN(Cc2cc(C)oc2C)CC1` yielded an RP-LC retention time of 579 s.
Work on `COc1ccccc1OCCCn1c(C2CCCO2)nc2ccccc21` (stereo not given) yielded an RP-LC retention time of 602 s.
With `COC(=O)c1ccsc1NC(=O)c1ccccc1Cl` the RP-LC retention time was 897 s.
Work on `Cc1cnc(C2CCC2)n1CCNC(=O)c1cc(C2CC2)[nH]n1` yielded an RP-LC retention time of 586 s.
With `CCNC(=O)C1CCN(c2nc3ccc(-c4ccc(F)cc4)nc3s2)CC1` the RP-LC retention time was 861 s.
In the case of `CCOc1ccc(CNC(=O)c2cc3c(-c4cccs4)nn(-c4ccccc4)c3n2CC)cc1`, the RP-LC retention time is reported as 1240 s.
`O=C1NCCCCCCN(C(=O)c2ccc3ccccc3n2)[C@H]2C[C@H](C(=O)N3CCc4ccccc4C3)C[C@@H]12` showed an RP-LC retention time of 896 s.
With `Cc1ccc(NC(=O)Cn2cnc3nc(N4CCCC(C(=O)NC5CC5)C4)sc3c2=O)cc1` (stereo not given) the RP-LC retention time was 674 s.
`CC1CCN(CCNc2ncccc2-c2nnc(-c3ccc(Cl)cc3)o2)CC1` showed an RP-LC retention time of 813 s.
With `Cc1ccc(C)c(N2CCN(Cc3nc(-c4ccc(N5CCCCC5)nc4)no3)CC2)c1` the RP-LC retention time was 1160 s.
For `O=C(Cn1cc(-c2ccc(F)cc2)oc1=O)NC1CCN(Cc2ccccc2)CC1`, the RP-LC retention time was 632 s.
`Cc1ccc(CN2CCC(CNC(=O)c3ccc4c(c3)NC(=O)C3CCCCN43)CC2)cc1` (stereo not given) gave an RP-LC retention time of 638 s.
`CC(C)(C)C(=O)C(Oc1ccc(Cl)cc1)n1ccnc1` (stereo not given) showed an RP-LC retention time of 780 s.
Compound `Cn1cnc([N+](=O)[O-])c1S(=O)(=O)Oc1cccc2ccccc12` has an RP-LC retention time of 970 s.
Compound `Cn1ncc(N2CCCC(C(=O)NCc3ccc(F)c(Cl)c3)C2)cc1=O` (stereo not given) has an RP-LC retention time of 726 s.
`CCOC(=O)c1ccccc1NC(=O)N1CCC(C(=O)NCc2csc(-c3ccccc3)n2)CC1` showed an RP-LC retention time of 993 s.
`O=C(Nc1nc2ccccc2[nH]1)c1ccc(Br)cc1` showed an RP-LC retention time of 710 s.
Work on `O=S(=O)(Nc1ccc(Br)cn1)c1ccccc1` yielded an RP-LC retention time of 780 s.
With `O=C(NCc1csc(-c2cccs2)n1)C1CCN(C(=O)CCC2CCCC2)CC1` the RP-LC retention time was 878 s.
`Cc1ccc(-c2nnc(-c3ccc(Cl)c(S(=O)(=O)N4CCCC4)c3)o2)cc1` showed an RP-LC retention time of 1150 s.
`Cc1c(Cc2ccccc2)sc(NC(=O)C2CCCCC2C(=O)O)c1C(N)=O` (stereo not given) showed an RP-LC retention time of 769 s.
Work on `O=S(=O)(c1ccccc1Cl)N1CCCC1Cc1noc(-c2ccccc2)n1` (stereo not given) yielded an RP-LC retention time of 1110 s.
In the case of `CCCCNC(=O)Cn1nc2c(N3CCSCC3)nccn2c1=O`, the RP-LC retention time is reported as 728 s.
Compound `O=C(NCC1CC1)c1cn(C2CN(C(=O)Nc3ccc4c(c3)OCCO4)C2)nn1` has an RP-LC retention time of 685 s.
`Cc1ccccc1CNC(=O)C1(C)CCCN(C(=O)NCc2ccc(F)cc2)C1` (stereo not given) showed an RP-LC retention time of 890 s.
`O=C(CNC(=O)c1ccccc1)NCCSc1ccc(C(=O)Nc2ccccc2)cn1` showed an RP-LC retention time of 728 s.
For `Cc1cc(C(=O)O)c2c(C)nn(-c3cccc(F)c3)c2n1`, the RP-LC retention time was 954 s.
Compound `CC(C)c1cc(C(=O)Nc2ccc(Cl)cc2F)no1` has an RP-LC retention time of 1140 s.
`CCN1CCN(CCNC(=O)CCCN2C(=O)CCn3nc(-c4cccn4C)cc32)CC1` showed an RP-LC retention time of 575 s.
For `COc1cc(C)c(C)cc1S(=O)(=O)NCC1CCN(c2ncccn2)CC1`, the RP-LC retention time was 806 s.
`CC(C)c1nnc(C2CCN(C(=O)c3ccc4nc[nH]c4c3)CC2)o1` gave an RP-LC retention time of 545 s.
`Cc1ccc(NS(=O)(=O)c2cc(-c3nc(C(C)C)cs3)cs2)c(C)c1` showed an RP-LC retention time of 1210 s.
Work on `Cc1ccc(C)c(N2CCN(c3ncc(S(=O)(=O)c4ccccc4)c(N)n3)CC2)c1` yielded an RP-LC retention time of 1230 s.
`COCCN1C(=O)c2ccccc2C(C(=O)NCCCN2CC(C)CC(C)C2)C1c1cccs1` (stereo not given) gave an RP-LC retention time of 670 s.
`CCc1cc(=O)n(CC(=O)NCCC2=CCCCC2)c(N)n1` showed an RP-LC retention time of 642 s.
In the case of `Cn1cnc2c(C(=O)N3CCOCC3)nn(-c3ccc(Cl)cc3)c2c1=O`, the RP-LC retention time is reported as 690 s.
Work on `CCn1cc(S(=O)(=O)N2CCC(c3nn(C)c(=O)n3C3CCCC3)CC2)cn1` yielded an RP-LC retention time of 717 s.
`O=C(Cc1ccccc1)N1CCCCC1c1nncn1-c1ccccc1` (stereo not given) showed an RP-LC retention time of 741 s.
In the case of `CCN1CCN(C(=O)C2CCN(c3ccc(Sc4ccc(C(C)C)cc4)nn3)CC2)CC1`, the RP-LC retention time is reported as 659 s.
With `Cc1ccc(NS(=O)(=O)c2ccc3c(c2)C(=O)N(C)c2ncccc2O3)c(F)c1` the RP-LC retention time was 910 s.
Work on `COc1ccc(N2CC(NC(=O)NN3CCOCC3)CC2=O)cc1` (stereo not given) yielded an RP-LC retention time of 587 s.
Work on `COc1ccc(-c2noc(-c3ccc(N4CCN(Cc5ccc6c(c5)OCO6)CC4)nc3)n2)cc1` yielded an RP-LC retention time of 785 s.
In the case of `CC(C)(C)c1ccc2c(c1)N(Cc1nc(-c3cccc(F)c3)no1)C(=O)CO2`, the RP-LC retention time is reported as 1240 s.
Compound `Cc1ccc2c(c1)N(S(C)(=O)=O)CCC(C(=O)Nc1ccc(Br)c(C)c1)O2` (stereo not given) has an RP-LC retention time of 1090 s.
`CCOc1ccc2sc(NS(=O)(=O)c3ccc(N)cc3)nc2c1` gave an RP-LC retention time of 797 s.
For `Cc1ccc(F)cc1NC(=O)Cn1nc2cc(-c3ccccc3)nc(C)n2c1=O`, the RP-LC retention time was 972 s.
`CN(C)c1ccc(/C=C2\CCc3ccccc3C2=O)cc1Br` gave an RP-LC retention time of 1260 s.
Compound `Cc1ccc(C)c(S(=O)(=O)N2[C@H]3CC[C@@H]2c2cnc(-c4ccccc4)nc2C3)c1` has an RP-LC retention time of 1230 s.
`CS(=O)(=O)Nc1ccc2c(c1)C(=O)Nc1cc(Cl)ccc1O2` gave an RP-LC retention time of 738 s.
In the case of `Cc1cc(C)cc(NS(=O)(=O)c2cc3n(c2)CCN(CC(C)C)C3=O)c1`, the RP-LC retention time is reported as 869 s.
For `CCc1ccccc1S(=O)(=O)N1CCC(N(C(=O)COC)C2CCOCC2)CC1`, the RP-LC retention time was 823 s.
With `Cn1c(CCNC(=O)c2ccc(Cl)s2)nc2cccnc21` the RP-LC retention time was 626 s.
For `Cc1ccccc1Cn1c(CN2CCC(C(=O)NCc3cccs3)CC2)cc2ccccc21`, the RP-LC retention time was 790 s.
`O=C(CSc1nnc(-c2ccc3c(c2)OCCCO3)n1C1CC1)N1CCCC1` showed an RP-LC retention time of 710 s.
In the case of `COc1nccnc1N1CCC(NC(=O)Cc2c(C)noc2C)C1` (stereo not given), the RP-LC retention time is reported as 596 s.
Compound `CCc1nc(OCC(=O)NCc2ccc(OC)cc2)c2ccccc2n1` has an RP-LC retention time of 746 s.
For `CCNC(=O)c1csc(N2CCCC(C)C2)n1` (stereo not given), the RP-LC retention time was 928 s.
With `Cc1sc2cc(C(=O)NC3CC3)[nH]c2c1CN1CCCCC1` the RP-LC retention time was 596 s.
In the case of `CC(C)(C)c1noc(-c2ccnc(-n3cnc(C(=O)N4CCCCCC4)c3)c2)n1`, the RP-LC retention time is reported as 998 s.
With `Cc1cc(OCC(=O)Nc2ccccc2C(F)(F)F)nc(N2CCN(c3ccccc3)CC2)n1` the RP-LC retention time was 971 s.
`Cc1cc(N2CCN(C)CC2)nc2ccc(NC(=O)CCC(=O)NCCC(C)C)cc12` showed an RP-LC retention time of 556 s.
With `CC1(C)CC(=O)c2cn(-c3ccccc3)c(=O)c(C(=O)Nc3ccccc3F)c2C1` the RP-LC retention time was 1040 s.
